Laboratory results taken from patent publication US6924288B2, “Enantiomerically pure opioid diarylmethylpiperzine and methods of using same” (priority 2001, dated 2005).

Columns and labels:
beagle dogs = test: Emesis observation in beagle dogs, escalating i.v. doses; type: in vivo, dog; details: i.v. slow bolus, 0.1, 0.3 and 0.5 mg/kg
Text: The following describes a procedure that provided observations on the emesis effects of (−)-3-((S)-((2S,5R)-4-allyl-2,5-dimethyl-1-piperazinyl)(3-thienyl)methyl)phenol (DPI-125). Three adult male beagle dogs were separately administered (−)-3-((S)-((2S,5R)-4-allyl-2,5-dimethyl-1-piperazinyl)(3-thienyl)methyl)phenol (DPI-125) in escalating dosages. Doses were chosen to produce blood levels consistent with strong to extreme analgesia and that would produce obvious pharmacological effects including lethargy and sedation. The compound was dissolved in sterile 5% dextrose solution that was buffered with acetic acid/sodium acetate buffer and administered intravenously in a slow bolus injection over 1-2 minutes. Firstly, the three dogs were administered test volume dosages of buffered 5% dextrose to ensure there was no reaction to the vehicle. Secondly, (−)3-((S)-((2S,5R)-4-allyl-2,5-dimethyl-1-piperazinyl)(3-thienyl)methyl)phenol (DPI-125) was administered in single injections at escalating dosages of 0.1, 0.3 and 0.5 mg/kg, with an intervening seven-day period before giving the next highest dose.

[1] = biological target: T1, Mu receptor, mouse vas deferens (Mus musculus, UniProt P42866); test: Mouse vas deferens, inhibition of electrically induced contractions, mu (with TIPP and nor-BNI); type: cell-based; details: in presence of 3 μM TIPP and 15 nM nor-BNI; read-out: Mouse Vas Deferens ED50 (nM) μ
T1 construct: Mouse vasa deferentia (MVD), CD-1 strain, Harlan, Raleigh, N.C.) were removed from mice; tissue Harlan, Raleigh, N.C; (animals); host or cells: mouse vas deferens, CD-1 strain

[2] = biological target: T2, Delta receptor, mouse vas deferens (Mus musculus, UniProt P32300); test: Mouse vas deferens, inhibition of electrically induced contractions, delta; type: cell-based; details: read-out: Mouse Vas Deferens ED50 (nM) δ
T2 construct: Mouse vasa deferentia (MVD), CD-1 strain, Harlan, Raleigh, N.C.) were removed from mice; tissue Harlan, Raleigh, N.C; (animals); host or cells: mouse vas deferens, CD-1 strain
Description: The compound of formula (I) and compounds 1, 3, 4, 5 and 6 as identified above, were evaluated for in vitro opioid receptor activity in various receptor systems, including mouse vas deferens (Mouse Vas Deferens ED50), and guinea pig ileum (Guinea Pig Ileum ED50). The assay procedures used for such determinations of receptor activity are set out below.
In vitro bioassays: Mouse vasa deferentia (MVD), CD-1 strain, Harlan, Raleigh, N.C.) were removed from mice and suspended between platinum electrodes with 0.5 g of tension in organ bath chambers containing a modified Mg^++ free Krebs buffer of the following composition (millimolar): NaCl, 117.5; KCl, 4.75; CaCl2, 2.6; KH2PO4, 1.20; NaHCO3, 24.5; and glucose, 11. The buffer was saturated with 95% O2/5% CO2 and kept at 37° C. Tissues were stimulated at supramaximal voltage with 10-Hz pulse trains for 400-msec.; train interval 10 seconds; and 1.0 msec pulse duration at maximal voltage. Delta receptor activity was determined by adding appropriate concentrations of test compound to organ baths and allowing a maximal response before addition of the next higher concentration.
The ED50 values were extrapolated from curves showing the dose concentration plotted against the response (J. A. H. Lord, A. A. Waterfield, J. Hughes, H. W. Kosterlitz, Nature 267, 495, (1977)).

rats = test: Respiratory depression by blood gas (pCO2) monitoring in rats; type: in vivo; details: rat; for Respiratory Depression % Units Baseline pCO2: 0.30 mg/kg i.v.
Description: (§1) Analgesia was assayed in rats using the tail pinch test with simultaneous monitoring of capillary blood gases (pCO2). During this testing period respiratory depression values were also obtained. Male rats (Wistar Hannover 200-300 g) were anesthetized with 2% isoflurane (J. A. Webster, Inc., Sterling, Mass. The femoral artery was cannulated with PE50 tubing for blood sampling. The external jugular vein was also cannulated with Silastic tubing for drug injection. After surgery, anesthetic gases were removed and the rat was allowed to rest in a plastic restrainer for 60 minutes to establish baseline values of blood gases.
(§2) The compounds 1-6 were administered intravenous. Nociceptive response and respiratory values were obtained for a 1-2 hour period. The femoral artery cannulation was used to draw arterial blood into a syringe pre-wetted with heparin. Samples were then analyzed with a blood gas analyzer (Ph/Gas Analyzer Synthesis 25 Model, Instrumentation Laboratory) to assess respiratory depression effects. The volume of blood taken each time was 0.15 cc. The syringes were capped immediately and the blood gases analyzed within 5 minutes. The blood exposed to air at the tip of the syringe was expelled. The blood was mixed by gentle inversion and an aliquots of 0.10 cc was injected into the blood gas analyzer.
(§3) The gas analyzer was well maintained and operated. Calibrations (low, normal and high) were done at the beginning of every day of testing. The sample lines, co-oximeter and the blood gas electrode were cleaned regularly at the end of every day of testing. Hematocrit calibration (high and low) was scheduled on a weekly basis and tubing, sample and pinch valve were replaced on a monthly basis.
(§4) The ED50 values for analgesia potency and respiratory depression were determined to calculate the safety or therapeutic ratio, which is defined as the respiratory depression ED50 divided by analgesia ED50.

[3] = as above; type: in vivo; details: male, Wistar Hannover, in vivo; rat, intravenous
Description: as §1, §2, §3, §4

T1 sequence (P42866 whole entry): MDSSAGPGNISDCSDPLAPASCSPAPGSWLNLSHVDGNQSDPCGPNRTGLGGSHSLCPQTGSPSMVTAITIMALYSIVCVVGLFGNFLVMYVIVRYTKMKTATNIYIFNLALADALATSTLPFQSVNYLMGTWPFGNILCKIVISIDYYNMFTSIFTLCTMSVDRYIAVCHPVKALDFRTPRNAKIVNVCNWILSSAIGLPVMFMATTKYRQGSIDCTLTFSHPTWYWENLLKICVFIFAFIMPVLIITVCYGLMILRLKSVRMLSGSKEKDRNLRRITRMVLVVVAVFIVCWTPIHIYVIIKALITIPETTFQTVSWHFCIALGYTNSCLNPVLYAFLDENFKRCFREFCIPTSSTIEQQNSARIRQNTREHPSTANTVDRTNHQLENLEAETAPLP
T2 sequence (P32300 whole entry): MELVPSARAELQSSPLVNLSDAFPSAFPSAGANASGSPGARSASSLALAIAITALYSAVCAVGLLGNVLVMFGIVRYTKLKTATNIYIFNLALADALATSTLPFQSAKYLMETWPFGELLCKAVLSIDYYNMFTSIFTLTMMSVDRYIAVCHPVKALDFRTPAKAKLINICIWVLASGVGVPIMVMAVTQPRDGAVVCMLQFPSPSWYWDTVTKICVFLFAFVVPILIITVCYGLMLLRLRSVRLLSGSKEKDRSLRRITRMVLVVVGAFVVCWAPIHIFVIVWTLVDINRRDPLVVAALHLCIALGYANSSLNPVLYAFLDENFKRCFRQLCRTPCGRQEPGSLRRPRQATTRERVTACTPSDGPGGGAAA

For `C=CCN1C[C@H](C)N([C@H](c2ccsc2)c2cccc(O)c2)C[C@H]1C` [Compound 2, (−)3-((S)-((2S,5R)-4-allyl-2,5-dimethyl-1-piperazinyl)(3-thienyl)methyl)phenol], the “Retching or vomiting (emesis)” value (beagle dogs) was “No retching or vomiting was observed”, the EC50 [1] was 38.8 nM and the EC50 [2] was 14.2 nM. For the same molecule, the “Respiratory Depression % Units Baseline pCO2” value (rats; 4 min.) was 48%, the “Respiratory Depression % Units Baseline pCO2” value (rats; 8 min.) was 34% and the “Respiratory Depression % Units Baseline pCO2” value (rats; 32 min.) was 17%. For the same molecule, the “Mortality due to respiratory depression” value (rats; i.v.) was “without lethal respiratory depression”, the “Safety Ratio (respiratory depression ED50 divided by analgesia ED50)” value (rats; intravenous) was 15.7 and the “Safety ratio, times greater than any of the other enantiomeric compounds tested” value (rats; intravenous) was “at least six times greater”. For the same molecule, the “Safety ratio, times greater than either of the racemic mixtures” value (rats; intravenous) was no less than 3 times and the ED50 [3] was 0.72 mg/kg.
